Experimental data from patent US20110027205A1, “USE OF MYRTLE EXTRACT AS DEPIGMENTING AGENT” (PIERRE FABRE DERMO-COSMETIQUE, priority 2008, published 2011).

Test system: melanocytes
Assay: Activity on melanogenesis (melanin content of melanocytes, 450 nm)
Type: cell-based
Details: Melanocyte, 72 hours, read-out: % inhibition of melanin synthesis
Experimental: The melanocytes are left to incubate in a suitable culture medium at 37° C. for 72 hours in contact with the myrtle extract according to example 1, at different concentrations, and with hydroquinone, the reference substance. At the end of the incubation period, the melanocytes are collected and washed. The cells are then treated with a sodium solution to extract the melanin. The stained solutions are then assayed under 450 nm spectrophotometry for their melanin content using a calibration curve. A melanogenesis-inhibiting activity of the tested products will translate as a lower melanin content in the extracted melanocyte solutions. A prior cytotoxicity test is evidently performed on these same cells to verify the non-toxicity of the extracts at the tested concentrations.

`Oc1ccc(O)cc1` [Hydroquinone] showed an inhibition at 5 µM (0.005 mM) of 35.7% and an inhibition at 10 µM (0.01 mM) of 58%.
